Data from article PMC7702302, “Fragment-derived modulators of an industrial β-glucosidase” (Biochemical Journal, 2020).
Several values for one entry are separate records, joined by “and”; a condition that tells them apart may be missing. Equal entries are not always repeated. Where two headings read alike, the source gives them in different places.

Assays:
TrBgl2 [1] = target: T1, TrBgl2 (Trichoderma reesei, UniProt O93785); test: MUG cleavage fluorescent kinetic assay (AC50 / Amax / IC50); type: biochemical
T1 sequence (O93785 entry or part of it): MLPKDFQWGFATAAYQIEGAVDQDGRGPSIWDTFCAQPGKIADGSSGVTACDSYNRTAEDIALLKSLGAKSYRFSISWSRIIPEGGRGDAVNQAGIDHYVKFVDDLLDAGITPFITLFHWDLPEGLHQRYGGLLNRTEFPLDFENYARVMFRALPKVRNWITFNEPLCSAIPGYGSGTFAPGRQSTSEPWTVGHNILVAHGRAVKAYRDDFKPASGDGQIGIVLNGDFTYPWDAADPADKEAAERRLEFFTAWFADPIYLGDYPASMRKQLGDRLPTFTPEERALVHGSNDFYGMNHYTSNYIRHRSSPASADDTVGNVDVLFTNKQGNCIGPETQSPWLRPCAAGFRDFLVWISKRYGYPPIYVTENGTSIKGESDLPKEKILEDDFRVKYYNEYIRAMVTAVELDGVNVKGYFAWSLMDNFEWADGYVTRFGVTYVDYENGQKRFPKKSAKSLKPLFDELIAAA
Procedure: A fluorescent kinetic assay was performed for library screening of TrBgl2 using 500 µM 4-methylumbelliferyl-β-D-glucopyranoside (MUG) in a total volume of 150 µL per well. Compounds dissolved in DMSO were added to each well to yield a final concentration from 1 to 2 mM. The reactions were performed in 160 mM phosphate–citrate buffer in pH 6.0, initiated by adding 20 µL of the enzyme to give a final concentration of 100 nM and were assayed at 40°C. The fluorescent 4-methylumbelliferyl release was recorded continuously at 355 nm excitation and 460 nm emission for 20 s using a BMG Labtech POLARstar OPTIMA plate reader. Control experiments were performed to evaluate the possibility of interference from the intrinsic fluorescence of compounds in the library by repeating the assay in the absence of the enzyme.
(§1) Assays were carried out in a 96 well plate (Black Nunc F96 MicroWell Plates) at 40 and 45°C for TrBgl2 and CcBglA, respectively, in 160 mM phosphate–citrate buffer in pH 6.0 and 2.5% DMSO. Reactions were initiated by the addition of 20 µL of protein to a final concentration of 100 nM, followed by 5 s of shaking. The fluorescent 4-methylumbelliferyl release was recorded continuously at 355 nm excitation and 460 nm emission for 20 s using a BMG Labtech POLARstar OPTIMA plate reader. Rates were calculated using GraphPad Prism 5.0 as the slope of the curve of the collected data. Corrections were made to the detected gradients to adjust for the inner filter effect of MUG and convert the gradients into units of µmol min^−1 according to a standard curve for MUG. The initial slopes were fitted to sigmoidal dose-response curves using GraphPad Prism 5.0 and the AC50 values extracted. Inhibition of TrBgl2 by isofagomine (IC50) was determined in similar manner to the AC50 values.

TrBgl2 [2] = target: T1, TrBgl2; test: Michaelis-Menten and covariation kinetics with MUG; type: biochemical
Procedure: Apparent KM and kcat values were calculated from a Michaelis–Menten curve fit to 9-point substrate titrations at a constant concentration of compounds. The covariation experiments used the same range of substrate concentrations across an activator and inhibitor concentration range. The data obtained from these experiments was fit to the nonessential activator and mixed-model inhibition equation, respectively.

E367Q TrBgl2 = test: Thermal shift assay (TSA); type: binding, Trichoderma reesei
Procedure: Thermal shift screens were performed in 96-well polypropylene PCR plates (Agilent 401334) with a final volume 25 µL/well. […] Melting data were collected using an Agilent Stratagene Mx3005P rtPCR machine ramping from 25 to 95°C at 30 s per degree. Data were analysed with a combination of the Agilent MxPro software, MTS [16], JTSA (http://paulsbond.co.uk/jtsa) and the DSF analysis spreadsheet in Excel.

TrBgl2 [3] = target: T1, TrBgl2; test: STD NMR ligand-observed binding; conditions: compound 500 µM, TrBgl2 20 µM; for binding to TrBgl2 by STD NMR: absence of isofagomine; for binding to TrBgl2 by STD NMR in presence of isofagomine: isofagomine 40 µM
Procedure: The samples contained 20 µM unlabelled TrBgl2, fragments at a concentration of 500 µM per compound and 100 µM sodium trimethylsilylpropanesulfonate (DSS) in 50 mM phosphate buffer containing 25 mM NaCl and 5% D2O at pH 6.0. The experiments were recorded by using a Bruker standard pulse sequence (stddiffesgp.3 [19]). The on-resonance frequency was set to 0.25 ppm and off-resonance irradiation was applied at 40 ppm. STD NMR spectra were collected with a total of 16 scans (NS), 5 s delay between the scans (d1), a saturation time of 4 s (d20) and 1.5 s acquisition time (AQ).

CcBglA = test: MUG cleavage assay on CcBglA (selectivity); type: biochemical, Clostridium cellulovorans; conditions: MUG 500 µM, titration 63 µM to 8 mM
Procedure: as §1

TrBgl2 [4] = target: T1, TrBgl2; test: Protein-observed NMR chemical shift perturbation (1H-15N TROSY); type: binding; conditions: compound 8 mM (8 also 16 mM), 15N TrBgl2 120 µM
Procedure: For backbone chemical shift perturbations (CSPs), each sample was prepared with 120 µM ^15N isotope-labelled TrBgl2 or E367Q TrBgl2, 8 mM or 16 mM of compound 8 or 10, 5 mM of MUG substrate and 100 µM DSS in 50 mM TRIS buffer containing 100 mM NaCl and 10% D2O at pH 8.0. The final DMSO concentration was usually not above 3.8%(v/v). ^1H-^15N TROSY spectra of the enzyme with DMSO in the buffer were collected as controls. ^1H-^15N TROSY spectra were collected by using a Bruker standard pulse sequence (trosyetf3gpsi) with 128 scans (NS), 1.5 s delay between the scans (d1), 35 ppm spectra width (SW), 256-time domain data size (TD) and 117 ppm irradiation carrier frequency offset (O1P).
For IVL methyl group CSPs, each sample was prepared with 250 µM of ^15N, ^13C, ^2H and IVL methyl group specifically labelled TrBgl2, 8 mM of compound 8, in 50 mM TRIS buffer containing 100 mM NaCl and 10% D2O at pH 8.0. The final DMSO concentration was usually not above 3.8% (v/v). ^1H-^13C HSQC spectra of the enzyme with DMSO in the buffer were collected as controls. ^1H-^13C HSQC spectra were recorded by using a Bruker standard pulse sequence (hsqcctetgpsp) with 8 scans (NS), 1.5 s delay between the scans (d1), 30 ppm spectra width (SW), 256-time domain data size (TD) and 15 ppm irradiation carrier frequency offset (O1P).

Solubility of compound = type: physicochemical
[5] = titration of compound from 63 µM to 8 mM, substrate conc. 500 µM
[6] = E367Q TrBgl2 in the presence of MUG (4 mM), compound 4 mM
[7] = apo E367Q TrBgl2, compound 4 mM, without MUG
[8] = pH 6, titration of compound from 30 µM to 3.8 mM, substrate conc. 500 µM, read-out: Amax
[9] = titration of compound from 30 µM to 3.8 mM, substrate conc. 500 µM
[10] = pH 6, titration of compound from 63 µM to 8 mM, substrate conc. 500 µM, read-out: Amax

Structure (SMILES) | Emax (TrBgl2 [1]; [8]) [%] | AC50 (TrBgl2 [1]; [9]) [µM] | Emax (TrBgl2 [1]; [10]) [%] | AC50 (TrBgl2 [1]; [5]) [µM] | binding to TrBgl2 by STD NMR (TrBgl2 [3]) | binding to TrBgl2 by STD NMR in presence of isofagomine (TrBgl2 [3]) | further results
S=C(Nc1ccc2nccnc2c1)N1CCOCC1 [Compound 10] |  |  |  |  | clear signal intensity | clear signal intensity | IC50 (TrBgl2 [1]; [5]): 312 ± 32 µM; inhibition (TrBgl2 [1]; titration of compound from 63 µM to 8 mM, substrate conc. 500 µM, read-out: Maximum inhibition): 96%; α modifier (reversible mixed inhibition model) (TrBgl2 [2]; covariation fit, MUG substrate): 3.65; decrease of Tm (E367Q TrBgl2; [6]): ~4 °C; decrease of Tm (E367Q TrBgl2; [7]): ~4 °C; inhibition of CcBglA (CcBglA): inhibited both enzymes to a similar degree; amide chemical shift changes on addition of compound (1H-15N TROSY) (TrBgl2 [4]): smaller but similar changes as seen for 8
Cc1cccc(C)c1NC(=S)NCCO [Compound 9] | 128 | > 4000 |  |  |  |  | 
COc1ccccc1NC(=S)N1CCOCC1 [Compound 6] |  |  | 143 | > 4000 |  |  | 
Cc1cccc(C)c1NC(=S)N1CCCCC1CO (centres unmarked) [Compound 7] |  |  | 161 | 1530 ± 312 |  |  | 
Cc1cccc(C)c1NC(=S)N1CCOCC1 [Compound 1] |  |  |  |  | showed evidence of binding | binding was also observed | AC50 (TrBgl2 [1]; MUG substrate 500 μM): 1000 µM and ~1000 µM; Emax (TrBgl2 [1]; MUG substrate 500 μM, read-out: Amax (maximal activation obtained)): ~155%; improvement in kcat/KM (TrBgl2 [2]; Michaelis-Menten analysis, MUG, in presence of 1 (3 mM) vs absence): approximately 2 fold
OC[C@H]1CNC[C@@H](O)[C@@H]1O [isofagomine, reference compound] |  |  |  |  |  |  | IC50 (TrBgl2 [1]; inhibition of TrBgl2, MUG substrate): 0.53 ± 0.12 µM
CCN(CCO)C(=S)Nc1c(C)cccc1C [Compound 8] |  |  | ≤ 188 | > 4000 | clear signal intensity | clear signal intensity | α modifier (nonessential activator model) (TrBgl2 [2]; covariation fit, MUG substrate): 0.64; β modifier (nonessential activator model, modifies kcat) (TrBgl2 [2]; covariation fit, MUG substrate): 1.5; enhancement of substrate affinity (TrBgl2 [2]; in the presence of activator): approximately 1.5 fold; increase of Tm (E367Q TrBgl2; [6]): ~1.2 °C; decrease of Tm (E367Q TrBgl2; [7]): ~1 °C; solubility (Solubility of compound): ≤ 16 mM; amide chemical shift changes on addition of compound (1H-15N TROSY) (TrBgl2 [4]): indicating a specific binding event
S=C(Nc1ccccc1Cl)N1CCOCC1 [Compound 3] | 155 | > 4000 |  |  |  |  | 

More lines, main results first:

Emax (TrBgl2 [1]; [8]) [%] | AC50 (TrBgl2 [1]; [9]) [µM] | Emax (TrBgl2 [1]; [10]) [%] | AC50 (TrBgl2 [1]; [5]) [µM] | Structure (SMILES) | binding to TrBgl2 by STD NMR (TrBgl2 [3]) | binding to TrBgl2 by STD NMR in presence of isofagomine (TrBgl2 [3]) | further results
139 | 1810 ± 96 |  |  | Cc1ccccc1NC(=S)N1CCOCC1 [Compound 4] |  |  | 
160 | > 4000 |  |  | Cc1ccc(C)c(NC(=S)N2CCOCC2)c1 [Compound 5] |  |  | 
